Reference: ChEMBL document CHEMBL5108011, “Design, synthesis and antitumor evaluation of ATP dual-mimic 2,4-diarylaminopyrimidine and aminoindazole conjugates as potent anaplastic lymphoma kinase inhibitors” (Eur J Med Chem, 2022)

Experiments:
NCI-H2228 [1] = test: cells; settings: Homo sapiens, NCI-H2228, 72 h
Description: Antiproliferative activity against EML4-ALK-positive human NCI-H2228 cells incubated for 72 hrs and measured by CCK-8 assay

KARPAS-299 = test: cells; settings: Homo sapiens, KARPAS-299, 72 h
Description: Antiproliferative activity against NPM-ALK-positive human KARPAS-299 cells incubated for 72 hrs and measured by CCK-8 assay

NCI-H3122 = test: cells; settings: Homo sapiens, NCI-H3122, 72 h
Description: Antiproliferative activity against EML4-ALK-positive human NCI-H3122 cells incubated for 72 hrs and measured by CCK-8 assay

A549 = test: cells; settings: Homo sapiens, A549, 72 h
Description: Antiproliferative activity against EGFR-positive human A549 cells incubated for 72 hrs and measured by CCK-8 assay

[2] = target: ALK tyrosine kinase receptor (Homo sapiens, UniProt Q9UM73, G1202R); test: Inhibition of ALK G1202R mutant (unknown origin) incubated for 1 hr and measured by mobility shift assay
[3] = target: ALK tyrosine kinase receptor (Homo sapiens, UniProt Q9UM73); test: Inhibition of ALK (unknown origin) incubated for 1 hr and measured by mobility shift assay
[4] = target: ALK tyrosine kinase receptor (Homo sapiens, UniProt Q9UM73, L1196M); test: Inhibition of ALK L1196M mutant (unknown origin) incubated for 1 hr and measured by mobility shift assay
[5] = target: Epidermal growth factor receptor (Homo sapiens, UniProt P00533); test: Inhibition of EGFR (unknown origin) incubated for 1 hr and measured by mobility shift assay
NCI-H1581 = test: Antiproliferative activity against human NCI-H1581 cells incubated for 72 hrs and measured by CCK-8 assay; format: functional, cell-based; settings: NCI-H1581, 72 h
HCT-116 = test: Antiproliferative activity against human HCT-116 cells incubated for 72 hrs and measured by CCK-8 assay; format: functional, cell-based; settings: HCT-116, 72 h
NCI-H2228 [6] = test: Induction of apoptosis in EML4-ALK-positive human NCI-H2228 cells assessed as apoptotic rate at 100 nM measured after 48 hrs by annexin V-FITC/propidium iodide staining based flow cytometry (reference value: 6.6%); format: functional
[7] = Cytotoxicity against human HELF cells incubated for 72 hrs and measured by CCK-8 assay; format: toxicity, cell-based
MCF7 = test: Antiproliferative activity against human MCF7 cells incubated for 72 hrs and measured by CCK-8 assay; format: functional, cell-based; settings: MCF7, 72 h
PC-3 = test: Antiproliferative activity against human PC-3 cells incubated for 72 hrs and measured by CCK-8 assay; format: functional, cell-based; settings: PC-3, 72 h

ALK tyrosine kinase receptor (Homo sapiens, UniProt Q9UM73), sequence (Q9UM73 whole entry): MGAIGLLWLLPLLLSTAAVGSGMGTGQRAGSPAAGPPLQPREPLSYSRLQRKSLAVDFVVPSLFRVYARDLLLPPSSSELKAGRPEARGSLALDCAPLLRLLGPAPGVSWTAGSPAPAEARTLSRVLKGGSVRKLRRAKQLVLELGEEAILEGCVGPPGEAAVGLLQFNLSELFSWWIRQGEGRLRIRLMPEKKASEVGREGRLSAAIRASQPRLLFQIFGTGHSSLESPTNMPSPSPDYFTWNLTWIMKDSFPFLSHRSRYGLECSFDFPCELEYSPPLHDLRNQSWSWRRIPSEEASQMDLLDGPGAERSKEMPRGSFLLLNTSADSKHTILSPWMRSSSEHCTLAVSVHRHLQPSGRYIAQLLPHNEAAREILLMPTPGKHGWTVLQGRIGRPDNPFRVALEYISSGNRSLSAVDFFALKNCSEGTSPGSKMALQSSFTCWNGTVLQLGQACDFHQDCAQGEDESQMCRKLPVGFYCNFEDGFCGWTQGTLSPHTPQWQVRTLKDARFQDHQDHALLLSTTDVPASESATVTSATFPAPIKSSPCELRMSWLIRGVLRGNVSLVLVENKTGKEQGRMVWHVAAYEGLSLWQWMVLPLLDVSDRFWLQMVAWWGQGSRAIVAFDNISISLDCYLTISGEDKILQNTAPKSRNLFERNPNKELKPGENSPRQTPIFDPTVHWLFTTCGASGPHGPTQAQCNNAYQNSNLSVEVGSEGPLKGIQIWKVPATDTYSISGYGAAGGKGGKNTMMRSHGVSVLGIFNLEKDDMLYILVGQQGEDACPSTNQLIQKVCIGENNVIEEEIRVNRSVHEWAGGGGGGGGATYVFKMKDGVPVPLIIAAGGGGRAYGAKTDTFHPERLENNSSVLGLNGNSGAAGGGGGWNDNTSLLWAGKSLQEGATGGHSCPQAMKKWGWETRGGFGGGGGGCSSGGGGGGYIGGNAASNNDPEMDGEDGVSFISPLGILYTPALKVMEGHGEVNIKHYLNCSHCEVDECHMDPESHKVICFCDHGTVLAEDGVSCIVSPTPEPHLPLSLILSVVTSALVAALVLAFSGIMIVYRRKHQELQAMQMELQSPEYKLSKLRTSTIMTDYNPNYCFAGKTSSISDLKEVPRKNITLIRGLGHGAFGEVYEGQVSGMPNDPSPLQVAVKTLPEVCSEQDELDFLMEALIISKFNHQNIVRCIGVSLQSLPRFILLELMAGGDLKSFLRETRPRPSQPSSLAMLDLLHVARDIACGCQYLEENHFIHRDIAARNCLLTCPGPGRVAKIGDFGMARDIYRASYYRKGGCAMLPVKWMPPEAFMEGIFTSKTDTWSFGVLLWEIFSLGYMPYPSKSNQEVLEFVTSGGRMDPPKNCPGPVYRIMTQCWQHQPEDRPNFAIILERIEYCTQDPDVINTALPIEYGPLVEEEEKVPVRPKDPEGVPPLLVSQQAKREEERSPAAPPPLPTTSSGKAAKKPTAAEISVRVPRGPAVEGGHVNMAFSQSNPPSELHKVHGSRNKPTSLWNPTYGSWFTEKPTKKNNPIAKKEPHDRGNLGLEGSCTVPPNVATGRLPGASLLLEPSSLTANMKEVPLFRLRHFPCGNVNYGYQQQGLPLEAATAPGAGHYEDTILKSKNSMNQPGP
ALK tyrosine kinase receptor (Homo sapiens, UniProt Q9UM73, L1196M), sequence (Q9UM73 19-1620 L1196M limits assumed): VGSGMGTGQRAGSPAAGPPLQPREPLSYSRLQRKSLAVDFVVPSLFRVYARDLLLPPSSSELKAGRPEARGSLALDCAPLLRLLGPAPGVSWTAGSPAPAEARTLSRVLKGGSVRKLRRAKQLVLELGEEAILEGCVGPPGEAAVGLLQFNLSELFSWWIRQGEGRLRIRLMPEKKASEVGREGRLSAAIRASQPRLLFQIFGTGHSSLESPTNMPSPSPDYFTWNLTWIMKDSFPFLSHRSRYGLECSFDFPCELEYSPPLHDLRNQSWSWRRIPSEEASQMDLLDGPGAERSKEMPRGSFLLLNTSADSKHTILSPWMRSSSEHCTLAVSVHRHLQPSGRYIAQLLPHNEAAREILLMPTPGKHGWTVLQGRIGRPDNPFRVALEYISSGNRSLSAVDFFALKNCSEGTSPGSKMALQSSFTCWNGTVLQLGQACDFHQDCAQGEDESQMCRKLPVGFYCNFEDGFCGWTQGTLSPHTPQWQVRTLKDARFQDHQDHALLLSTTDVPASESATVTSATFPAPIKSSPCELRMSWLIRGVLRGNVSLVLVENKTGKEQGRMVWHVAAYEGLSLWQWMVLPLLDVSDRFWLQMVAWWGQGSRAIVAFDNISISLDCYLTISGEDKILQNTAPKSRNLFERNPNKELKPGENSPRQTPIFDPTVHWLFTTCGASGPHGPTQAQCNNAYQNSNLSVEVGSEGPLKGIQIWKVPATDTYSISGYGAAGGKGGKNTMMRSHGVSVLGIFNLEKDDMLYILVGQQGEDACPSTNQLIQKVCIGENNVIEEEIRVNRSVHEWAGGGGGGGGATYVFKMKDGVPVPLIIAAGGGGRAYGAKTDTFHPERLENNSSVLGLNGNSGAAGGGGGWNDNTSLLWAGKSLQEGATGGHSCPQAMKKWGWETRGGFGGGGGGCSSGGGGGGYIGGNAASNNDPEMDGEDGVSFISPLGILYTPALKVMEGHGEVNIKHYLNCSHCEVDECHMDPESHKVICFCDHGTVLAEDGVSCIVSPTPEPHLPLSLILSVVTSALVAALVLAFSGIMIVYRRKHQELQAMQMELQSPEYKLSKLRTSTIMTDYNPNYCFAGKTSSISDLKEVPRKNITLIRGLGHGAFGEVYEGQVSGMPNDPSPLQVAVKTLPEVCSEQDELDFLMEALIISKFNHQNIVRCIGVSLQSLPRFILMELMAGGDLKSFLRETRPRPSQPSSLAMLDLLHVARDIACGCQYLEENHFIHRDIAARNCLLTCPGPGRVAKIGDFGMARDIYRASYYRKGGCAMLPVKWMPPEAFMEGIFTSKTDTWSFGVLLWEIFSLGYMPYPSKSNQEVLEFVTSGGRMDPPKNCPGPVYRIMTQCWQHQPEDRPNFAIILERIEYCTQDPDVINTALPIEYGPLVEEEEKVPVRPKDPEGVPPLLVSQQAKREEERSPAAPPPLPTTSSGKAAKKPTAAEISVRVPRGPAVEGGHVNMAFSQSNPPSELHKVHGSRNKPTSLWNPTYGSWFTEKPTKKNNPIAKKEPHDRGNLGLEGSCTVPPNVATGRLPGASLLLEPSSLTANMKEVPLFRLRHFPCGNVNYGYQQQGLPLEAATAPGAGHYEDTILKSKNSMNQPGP
ALK tyrosine kinase receptor (Homo sapiens, UniProt Q9UM73, G1202R), sequence (Q9UM73 19-1620 G1202R limits assumed): as the sequence (Q9UM73 19-1620 L1196M limits assumed) above, with M1178L, G1184R counted along it
Epidermal growth factor receptor, sequence (P00533 whole entry): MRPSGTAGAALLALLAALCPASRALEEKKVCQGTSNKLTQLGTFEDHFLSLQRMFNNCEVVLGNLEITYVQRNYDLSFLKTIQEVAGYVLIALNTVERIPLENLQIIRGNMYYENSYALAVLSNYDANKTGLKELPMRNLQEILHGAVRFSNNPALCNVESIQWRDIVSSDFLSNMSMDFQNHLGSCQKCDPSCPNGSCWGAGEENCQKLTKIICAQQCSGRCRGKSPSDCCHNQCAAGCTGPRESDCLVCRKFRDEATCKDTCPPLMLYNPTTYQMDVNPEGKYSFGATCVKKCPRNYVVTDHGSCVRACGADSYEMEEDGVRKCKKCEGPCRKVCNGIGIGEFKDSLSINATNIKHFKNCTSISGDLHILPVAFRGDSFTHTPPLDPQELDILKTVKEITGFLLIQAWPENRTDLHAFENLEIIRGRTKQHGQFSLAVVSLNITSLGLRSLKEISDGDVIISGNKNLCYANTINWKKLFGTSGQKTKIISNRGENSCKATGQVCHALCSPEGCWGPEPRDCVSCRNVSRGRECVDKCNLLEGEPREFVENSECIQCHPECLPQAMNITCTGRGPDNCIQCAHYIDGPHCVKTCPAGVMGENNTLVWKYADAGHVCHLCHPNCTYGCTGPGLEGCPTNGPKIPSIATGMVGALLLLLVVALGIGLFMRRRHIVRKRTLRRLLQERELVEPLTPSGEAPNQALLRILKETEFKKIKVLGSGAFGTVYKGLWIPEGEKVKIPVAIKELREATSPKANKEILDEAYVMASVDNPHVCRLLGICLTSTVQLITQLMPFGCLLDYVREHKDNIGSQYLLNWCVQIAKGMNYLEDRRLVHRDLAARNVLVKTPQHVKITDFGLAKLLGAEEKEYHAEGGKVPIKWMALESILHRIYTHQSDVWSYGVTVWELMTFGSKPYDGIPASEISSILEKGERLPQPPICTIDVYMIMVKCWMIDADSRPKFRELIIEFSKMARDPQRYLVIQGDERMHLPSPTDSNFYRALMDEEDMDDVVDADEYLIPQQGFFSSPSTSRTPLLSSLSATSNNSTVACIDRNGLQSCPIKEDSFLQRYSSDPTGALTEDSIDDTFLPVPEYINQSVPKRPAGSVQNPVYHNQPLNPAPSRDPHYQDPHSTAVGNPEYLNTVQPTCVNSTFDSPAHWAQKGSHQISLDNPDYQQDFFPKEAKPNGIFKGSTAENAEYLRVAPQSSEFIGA

Row | Compound | IC50 (NCI-H2228 [1]) [nM] | IC50 (KARPAS-299) [nM] | IC50 (NCI-H3122) [nM] | IC50 (A549) [nM] | further results
1 | CC(C)S(=O)(=O)c1ccccc1Nc1nc(Nc2ccc3c(NC(=O)CN4CCN(CCO)CC4)n[nH]c3c2)ncc1Cl | 250 | 46 | 157 | 7260 | 
2 | CC(C)S(=O)(=O)c1ccccc1Nc1nc(Nc2ccc3c(NC(=O)CN4CCCCC4)n[nH]c3c2)ncc1Cl | 133 | 19 | 83 | 3260 | 
3 | CC(C)S(=O)(=O)c1ccccc1Nc1nc(Nc2ccc3c(NC(=O)CN4CCC(O)CC4)n[nH]c3c2)ncc1Cl | 170 | 41 | 129 | 1840 | 
4 | CNC(=O)c1ccccc1Nc1nc(Nc2ccc3c(NC(=O)CN4CCCC4)n[nH]c3c2)ncc1Cl |  |  |  |  | IC50 [2]: 2.1 nM; IC50 [3]: 3.6 nM; IC50 [4]: 4.4 nM
5 | CN(C)CC(=O)Nc1n[nH]c2cc(Nc3ncc(Cl)c(Nc4ccccc4NS(C)(=O)=O)n3)ccc12 | 339 | 132 | 245 | 3440 | 
6 | CCN(CC)CC(=O)Nc1n[nH]c2cc(Nc3ncc(Cl)c(Nc4ccccc4C(=O)NC)n3)ccc12 | 62 | 17 | 85 | 2350 | 
7 | CCN1CCN(CC(=O)Nc2n[nH]c3cc(Nc4ncc(Cl)c(Nc5ccccc5C(=O)NC)n4)ccc23)CC1 | 242 | 21 | 162 | 4470 | 
8 | CNC(=O)c1ccccc1Nc1nc(Nc2ccc3c(NC(=O)CN4CCN(CCO)CC4)n[nH]c3c2)ncc1Cl | 412 | 53 | 175 | 13600 | 
9 | C/C=C/C(=O)Nc1ccccc1Nc1nc(Nc2ccc3c(NC(=O)CN(C)C)n[nH]c3c2)ncc1Cl | 2980 | 1250 | 3690 | 5910 | 
10 | CC(C)S(=O)(=O)c1ccccc1Nc1nc(Nc2ccc3c(NC(=O)CN(C)C)n[nH]c3c2)ncc1Cl |  |  |  |  | IC50 [2]: 3.8 nM; IC50 [3]: 2.5 nM; IC50 [4]: 4.8 nM
11 | CN(C)CC(=O)Nc1n[nH]c2cc(Nc3ncc(Cl)c(Nc4ccccc4NC(=O)C4CC4)n3)ccc12 | 823 | 558 | 836 | 1320 | 
12 | CC(C)S(=O)(=O)c1ccccc1Nc1nc(Nc2ccc3c(NC(=O)CN4CCOCC4)n[nH]c3c2)ncc1Cl | 124 | 22 | 73 | 2390 | 
13 | CNC(=O)c1ccccc1Nc1nc(Nc2ccc3c(NC(=O)CN4CCSCC4)n[nH]c3c2)ncc1Cl | 322 | 76 | 137 | 1220 | 
14 | CCN(CC)CC(=O)Nc1n[nH]c2cc(Nc3ncc(Cl)c(Nc4ccccc4S(=O)(=O)C(C)C)n3)ccc12 | 45 | 21 | 57 | 2560 | IC50 [2]: 1.8 nM; IC50 [3]: 3.3 nM; IC50 [5]: > 1000 nM; IC50 [4]: 3.8 nM
15 | CNC(=O)c1ccccc1Nc1nc(Nc2ccc3c(NC(=O)CN4CCC(=O)CC4)n[nH]c3c2)ncc1Cl | 569 | 63 | 187 | 2030 | 
16 | CN(C)CC(=O)Nc1n[nH]c2cc(Nc3ncc(Cl)c(Nc4ccccc4NC(=O)C(C)(C)C)n3)ccc12 | 912 | 718 | 1570 | 1690 | 
17 | CNC(=O)c1ccccc1Nc1nc(Nc2ccc3c(NC(=O)CN4CCC(C)CC4)n[nH]c3c2)ncc1Cl | 113 | 29 | 71 | 4810 | 
18 | C=CC(=O)Nc1ccccc1Nc1nc(Nc2ccc3c(NC(=O)CN(C)C)n[nH]c3c2)ncc1Cl | 1820 | 899 | 3490 | 4490 | 
19 | CC1CCN(CC(=O)Nc2n[nH]c3cc(Nc4ncc(Cl)c(Nc5ccccc5S(=O)(=O)C(C)C)n4)ccc23)CC1 | 104 | 16 | 65 | 1470 | 
20 | CC(=O)Nc1ccccc1Nc1nc(Nc2ccc3c(NC(=O)CN(C)C)n[nH]c3c2)ncc1Cl | 770 | 359 | 74 | 1670 | 
21 | CNC(=O)c1ccccc1Nc1nc(Nc2ccc3c(NC(=O)CN4CCOCC4)n[nH]c3c2)ncc1Cl | 112 | 23 | 97 | 2230 | 
22 | CN(C)CC(=O)Nc1n[nH]c2cc(Nc3ncc(Cl)c(Nc4ccccc4NC(=O)C(Cl)(Cl)Cl)n3)ccc12 | 1450 | 1270 | 2960 | 5780 | 
23 | CC(C)S(=O)(=O)c1ccccc1Nc1nc(Nc2ccc3c(NC(=O)CN4CCN(C)CC4)n[nH]c3c2)ncc1Cl | 520 | 34 | 89 | 3580 | 
24 | CNC(=O)c1ccccc1Nc1nc(Nc2ccc3c(NC(=O)CN(C)C)n[nH]c3c2)ncc1Cl | 51 | 12 | 21 | 2190 | IC50 [2]: 2.5 nM; IC50 [3]: 3.7 nM; IC50 [5]: > 1000 nM; IC50 [4]: 6.6 nM
25 | CCN1CCN(CC(=O)Nc2n[nH]c3cc(Nc4ncc(Cl)c(Nc5ccccc5S(=O)(=O)C(C)C)n4)ccc23)CC1 | 140 | 26 | 84 | 3970 | 
26 | CN(C)CC(=O)Nc1n[nH]c2cc(Nc3ncc(Cl)c(Nc4ccccc4NS(=O)(=O)C4CC4)n3)ccc12 | 781 | 169 | 1530 | 1850 | 
27 | CC(C)S(=O)(=O)c1ccccc1Nc1nc(Nc2ccc3c(NC(=O)CN4CCSCC4)n[nH]c3c2)ncc1Cl | 126 | 36 | 124 | 1180 | 
28 | CNC(=O)c1ccccc1Nc1nc(Nc2ccc3c(NC(=O)CN4CCC(O)CC4)n[nH]c3c2)ncc1Cl | 362 | 59 | 151 | 2000 | 
29 | CNC(=O)c1ccccc1Nc1nc(Nc2ccc3c(NC(=O)CN4CCCCC4)n[nH]c3c2)ncc1Cl | 204 | 31 | 107 | 7210 | 
30 | Cc1cc(Nc2ncc(Cl)c(Nc3ccccc3S(=O)(=O)C(C)C)n2)c(OC(C)C)cc1C1CCNCC1 [CERITINIB] | 66 | 24 | 43 | 2770 | IC50 (NCI-H1581): 2310 nM; IC50 (HCT-116): 1930 nM; Activity (NCI-H2228 [6]): 12.32%; IC50 at 72 h [7]: > 20000 nM; IC50 (MCF7): 1870 nM; IC50 (PC-3): 1020 nM
